In patent US20220218675A1, “TREATMENT OF OCULAR DISEASE” (PREMARK PHARMA GMBH, priority 2019, published 2022):

Experiments:
[1] = slightly soluble in water; cited from earlier work
[2] = tested on: skin; settings: cited from earlier work
[3] = Solubility of pimecrolimus in different solvents (HPLC after 24-hour equilibration at 25 °C); type: physicochemical
Method: FIG. 2: Solubility of pimecrolimus in different solvents. […] Form B refers to the anhydrous, crystalline polymorph B of pimecrolimus that has been used in the manufacture of the composition according to the invention. The legend in the lower table defines the terms used for the categorization of solubility.
The solubility of pimecrolimus in different solvents was determined by HPLC after 24-hour equilibration (vibration) at 25.0+/−0.5° C. After the vibration, the precipitate was separated from the solution, dried and investigated by DSC and by X-ray diffraction pattern.

[4] = tested on: animal models of skin inflammation; settings: in vivo; cited from earlier work

OCCc1ccccc1 [Phenyl ethyl alcohol, 2-phenyl-ethan-1-ol]
Solubility in water [1]: 2 ml/100 ml H2O

CC[C@@H]1/C=C(\C)C[C@H](C)C[C@H](OC)[C@H]2O[C@@](O)(C(=O)C(=O)N3CCCC[C@H]3C(=O)O[C@H](/C(C)=C/[C@@H]3CC[C@H](Cl)[C@H](OC)C3)[C@H](C)[C@@H](O)CC1=O)[C@H](C)C[C@@H]2OC [pimecrolimus, (1R,9S,12S,13R,14S,17R,18E,21S,23S,24R,25S,27R)-12-[(1E)-2-{(1R,3R,4S)-4-chloro-3-methoxycyclohexyl}-1-methylvinyl]-17-ethyl-1,14-dihydroxy-23,25-dimethoxy-13,19,21,27-tetramethyl-11,28-dioxa-4-aza-tricyclo[22.3.1.04,9]octacos-18-ene-2,3,10,16-tetraone]
Potential for systemic immunosuppression ([2]; compared with cyclosporin A and tacrolimus): lower potential for systemic immunosuppression than cyclosporin A and tacrolimus
Anti-inflammatory activity in the skin, topical ([2]; compared with cyclosporin A): greater anti-inflammatory activity in the skin than cyclosporin A
Skin atrophy ([2]; in contrast to steroids): does not induce skin atrophy
Solubility in excipients that can be used in semi-solid formulations for dermal and ophthalmic use [3]: very poor
Solubility in aqueous solutions and water ([3]; 24-hour equilibration at 25.0+/-0.5 °C, HPLC, FIG. 2): insoluble
Efficacy in animal models of skin inflammation [4]: highly effective
